Results: the supplement of paper PMC8183993
Counter-ions that a name gives are not always drawn.

Assays:
Conditions in all cases: 24 h
U2OS [1] = assay: nuclei count in OPP assay relative to DMSO (% of DMSO); higher = more viable cells
Method: (§1)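 Validation screen in U2OS cells: hits tested at 1, 3 and 10 uM for 24 h in duplicate plates. Translation was read by OPP incorporation (1 h pulse) and HPG incorporation (30 min in methionine-free medium), quantified by high-throughput microscopy alongside nuclei counts. All values are normalised to DMSO (= 100).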

U2OS [2] = assay: nuclei count in HPG assay relative to DMSO (% of DMSO); higher = more viable cells
Method: as §1

U2OS [3] = assay: mean OPP incorporation (global translation) relative to DMSO (% of DMSO); higher = more protein synthesis
Method: as §1

U2OS [4] = assay: mean HPG incorporation (global translation) relative to DMSO (% of DMSO); higher = more protein synthesis
Method: as §1

CNC(=O)c1cccc(-c2ccc3c(N4CCOC[C@@H]4C)nc(N4CCOC[C@@H]4C)nc3n2)c1 [AZD2014]
nuclei count in OPP assay (U2OS [1]; 1 µM): 85.4 | nuclei count in OPP assay (U2OS [1]; 3 µM): 79.4 | nuclei count in OPP assay (U2OS [1]; 10 µM): 72.2 | nuclei count in HPG assay (U2OS [2]; 1 µM): 84.1 | nuclei count in HPG assay (U2OS [2]; 3 µM): 78 | nuclei count in HPG assay (U2OS [2]; 10 µM): 75 | mean OPP incorporation (U2OS [3]; 1 µM): 57.6 | mean OPP incorporation (U2OS [3]; 3 µM): 36.3 | mean OPP incorporation (U2OS [3]; 10 µM): 35.6 | mean HPG incorporation (U2OS [4]; 1 µM): 44.3 | mean HPG incorporation (U2OS [4]; 3 µM): 36.7 | mean HPG incorporation (U2OS [4]; 10 µM): 34.8

COc1cc(C)c(/C=C/C(C)=C/C=C/C(C)=C/C(=O)O)c(C)c1C [Acitretin]
nuclei count in OPP assay (U2OS [1]; 1 µM): 91.4 | nuclei count in OPP assay (U2OS [1]; 3 µM): 89.8 | nuclei count in OPP assay (U2OS [1]; 10 µM): 94.2 | nuclei count in HPG assay (U2OS [2]; 1 µM): 91.8 | nuclei count in HPG assay (U2OS [2]; 3 µM): 95.3 | nuclei count in HPG assay (U2OS [2]; 10 µM): 95.7 | mean OPP incorporation (U2OS [3]; 1 µM): 107 | mean OPP incorporation (U2OS [3]; 3 µM): 109 | mean OPP incorporation (U2OS [3]; 10 µM): 109 | mean HPG incorporation (U2OS [4]; 1 µM): 99.8 | mean HPG incorporation (U2OS [4]; 3 µM): 108 | mean HPG incorporation (U2OS [4]; 10 µM): 87

CCC(=O)CCCCC[C@@H]1NC(=O)[C@H]2CCCCN2C(=O)[C@H]([C@@H](C)CC)NC(=O)[C@H](Cc2cn(OC)c3ccccc23)NC1=O [Apicidin]
nuclei count in OPP assay (U2OS [1]; 1 µM): 106 | nuclei count in OPP assay (U2OS [1]; 3 µM): 95.4 | nuclei count in OPP assay (U2OS [1]; 10 µM): 91.7 | nuclei count in HPG assay (U2OS [2]; 1 µM): 108 | nuclei count in HPG assay (U2OS [2]; 3 µM): 96.3 | nuclei count in HPG assay (U2OS [2]; 10 µM): 88 | mean OPP incorporation (U2OS [3]; 1 µM): 92.2 | mean OPP incorporation (U2OS [3]; 3 µM): 83.9 | mean OPP incorporation (U2OS [3]; 10 µM): 55.8 | mean HPG incorporation (U2OS [4]; 1 µM): 132 | mean HPG incorporation (U2OS [4]; 3 µM): 135 | mean HPG incorporation (U2OS [4]; 10 µM): 85

Cc1c(CN2CCN(C(=O)[C@H](C)O)CC2)sc2c(N3CCOCC3)nc(-c3cnc(N)nc3)nc12 [Apitolisib (GDC-0980, RG7422)]
nuclei count in OPP assay (U2OS [1]; 1 µM): 72.8 | nuclei count in OPP assay (U2OS [1]; 3 µM): 76.9 | nuclei count in OPP assay (U2OS [1]; 10 µM): 73.3 | nuclei count in HPG assay (U2OS [2]; 1 µM): 80.7 | nuclei count in HPG assay (U2OS [2]; 3 µM): 76.3 | nuclei count in HPG assay (U2OS [2]; 10 µM): 75 | mean OPP incorporation (U2OS [3]; 1 µM): 60.3 | mean OPP incorporation (U2OS [3]; 3 µM): 35.8 | mean OPP incorporation (U2OS [3]; 10 µM): 35.4 | mean HPG incorporation (U2OS [4]; 1 µM): 44.1 | mean HPG incorporation (U2OS [4]; 3 µM): 40.7 | mean HPG incorporation (U2OS [4]; 10 µM): 41.4

Cc1c(-c2ccc(O)cc2)n(Cc2ccc(OCCN3CCCCCC3)cc2)c2ccc(O)cc12 [Bazedoxifene HCl]
nuclei count in OPP assay (U2OS [1]; 1 µM): 96.8 | nuclei count in OPP assay (U2OS [1]; 3 µM): 86.5 | nuclei count in OPP assay (U2OS [1]; 10 µM): 77.9 | nuclei count in HPG assay (U2OS [2]; 1 µM): 103 | nuclei count in HPG assay (U2OS [2]; 3 µM): 98.5 | nuclei count in HPG assay (U2OS [2]; 10 µM): 80.3 | mean OPP incorporation (U2OS [3]; 1 µM): 109 | mean OPP incorporation (U2OS [3]; 3 µM): 121 | mean OPP incorporation (U2OS [3]; 10 µM): 133 | mean HPG incorporation (U2OS [4]; 1 µM): 84.1 | mean HPG incorporation (U2OS [4]; 3 µM): 84.9 | mean HPG incorporation (U2OS [4]; 10 µM): 85.2

CCN(CC)CCOc1ccc(C(=C(Cl)c2ccccc2)c2ccccc2)cc1 [Clomiphene citrate (Z,E)]
nuclei count in OPP assay (U2OS [1]; 1 µM): 88 | nuclei count in OPP assay (U2OS [1]; 3 µM): 98.6 | nuclei count in OPP assay (U2OS [1]; 10 µM): 93.3 | nuclei count in HPG assay (U2OS [2]; 1 µM): 91.3 | nuclei count in HPG assay (U2OS [2]; 3 µM): 95.3 | nuclei count in HPG assay (U2OS [2]; 10 µM): 86.7 | mean OPP incorporation (U2OS [3]; 1 µM): 116 | mean OPP incorporation (U2OS [3]; 3 µM): 124 | mean OPP incorporation (U2OS [3]; 10 µM): 136 | mean HPG incorporation (U2OS [4]; 1 µM): 90.2 | mean HPG incorporation (U2OS [4]; 3 µM): 115 | mean HPG incorporation (U2OS [4]; 10 µM): 123

C=CC[C@@H]1/C=C(\C)C[C@H](C)C[C@H](OC)[C@H]2O[C@@](O)(C(=O)C(=O)N3CCCC[C@H]3C(=O)O[C@H](/C(C)=C/[C@@H]3CC[C@@H](O)[C@H](OC)C3)[C@H](C)[C@@H](O)CC1=O)[C@H](C)C[C@@H]2OC [FK-506 (Tacrolimus)]
nuclei count in OPP assay (U2OS [1]; 1 µM): 98.7 | nuclei count in OPP assay (U2OS [1]; 3 µM): 100 | nuclei count in OPP assay (U2OS [1]; 10 µM): 93.3 | nuclei count in HPG assay (U2OS [2]; 1 µM): 102 | nuclei count in HPG assay (U2OS [2]; 3 µM): 98.7 | nuclei count in HPG assay (U2OS [2]; 10 µM): 99.9 | mean OPP incorporation (U2OS [3]; 1 µM): 115 | mean OPP incorporation (U2OS [3]; 3 µM): 123 | mean OPP incorporation (U2OS [3]; 10 µM): 134 | mean HPG incorporation (U2OS [4]; 1 µM): 121 | mean HPG incorporation (U2OS [4]; 3 µM): 125 | mean HPG incorporation (U2OS [4]; 10 µM): 133

CC1=C(/C=C/C(C)=C/C=C/C(C)=C/C(=O)Nc2ccc(O)cc2)C(C)(C)CCC1 [Fenretinide]
nuclei count in OPP assay (U2OS [1]; 1 µM): 97.1 | nuclei count in OPP assay (U2OS [1]; 3 µM): 96.5 | nuclei count in OPP assay (U2OS [1]; 10 µM): 87.9 | nuclei count in HPG assay (U2OS [2]; 1 µM): 102 | nuclei count in HPG assay (U2OS [2]; 3 µM): 93.9 | nuclei count in HPG assay (U2OS [2]; 10 µM): 86.7 | mean OPP incorporation (U2OS [3]; 1 µM): 107 | mean OPP incorporation (U2OS [3]; 3 µM): 109 | mean OPP incorporation (U2OS [3]; 10 µM): 117 | mean HPG incorporation (U2OS [4]; 1 µM): 98.1 | mean HPG incorporation (U2OS [4]; 3 µM): 93.5 | mean HPG incorporation (U2OS [4]; 10 µM): 96.7

C[C@]12CC[C@@H]3c4ccc(O)cc4C[C@@H](CCCCCCCCC[S+]([O-])CCCC(F)(F)C(F)(F)F)[C@H]3[C@@H]1CC[C@@H]2O (stereo not given in full) [Fulvestrant]
nuclei count in OPP assay (U2OS [1]; 1 µM): 98.7 | nuclei count in OPP assay (U2OS [1]; 3 µM): 96.4 | nuclei count in OPP assay (U2OS [1]; 10 µM): 93.8 | nuclei count in HPG assay (U2OS [2]; 1 µM): 97 | nuclei count in HPG assay (U2OS [2]; 3 µM): 101 | nuclei count in HPG assay (U2OS [2]; 10 µM): 89.1 | mean OPP incorporation (U2OS [3]; 1 µM): 115 | mean OPP incorporation (U2OS [3]; 3 µM): 123 | mean OPP incorporation (U2OS [3]; 10 µM): 115 | mean HPG incorporation (U2OS [4]; 1 µM): 118 | mean HPG incorporation (U2OS [4]; 3 µM): 125 | mean HPG incorporation (U2OS [4]; 10 µM): 115

CC(=O)O[C@@H]1C[C@H]2C(C)(C)C(=O)C=C[C@]2(C)[C@H]2CC[C@@]3(C)[C@H](c4ccoc4)OC(=O)[C@H]4O[C@]43[C@@]21C [Gedunin]
nuclei count in OPP assay (U2OS [1]; 1 µM): 97.7 | nuclei count in OPP assay (U2OS [1]; 3 µM): 96.4 | nuclei count in OPP assay (U2OS [1]; 10 µM): 95.9 | nuclei count in HPG assay (U2OS [2]; 1 µM): 103 | nuclei count in HPG assay (U2OS [2]; 3 µM): 101 | nuclei count in HPG assay (U2OS [2]; 10 µM): 94.7 | mean OPP incorporation (U2OS [3]; 1 µM): 112 | mean OPP incorporation (U2OS [3]; 3 µM): 114 | mean OPP incorporation (U2OS [3]; 10 µM): 115 | mean HPG incorporation (U2OS [4]; 1 µM): 91.2 | mean HPG incorporation (U2OS [4]; 3 µM): 88.7 | mean HPG incorporation (U2OS [4]; 10 µM): 66.3
